Results from publication PMC4648050, “Discovery of Inhibitors of Trypanosoma brucei by Phenotypic Screening of a Focused Protein Kinase Library” (Chemmedchem, 2015).
In brackets after ≈: the same amount, converted by molar mass. Read-outs that look alike come from different tables or passages of the source.

Assays:
[1] = test system: MRC5 cells (human lung fibroblasts); experiment: MRC5 proliferation assay; type: cell-based; conditions: geometric mean of two or more determinations
Description: (§1) Trypanosome and MRC5 proliferation assay: Measurement of inhibition of the proliferation of MRC5 cells (human lung fibroblasts) and T. brucei bloodstream-stage cells was performed using a modification of a cell viability assay previously described.[35, 36] Compounds ([…] to 0.5 nM) were incubated with 2×10^3 cells per well in 0.2 mL of the appropriate culture medium (MEM with 10 % foetal bovine serum for MRC5 cells) in clear 96-well plates. Plates were incubated at 37 °C in the presence of 5 % CO2 for 69 h. Resazurin was then added to a final concentration of 50 μM, and plates were incubated as above for a further 4 h before being read on a BioTek Flx800 fluorescence plate reader.

[2] = test system: T. brucei bloodstream-stage cells; experiment: Static–cidal (SC) assay; type: cell-based, Trypanosoma brucei brucei; conditions: for EC50 / MCC: Trypanosoma brucei; for EC50: 48 h; for MCC: static–cidal assay in triplicate, read-out: MCC (minimal cidal concentration); for plateau of dose–response curve (inhibition): static–cidal dose–response curve; for mode of antiparasitic effect (in words): text and figure legend, at concentrations tested
Description: Determination of cidality against T. brucei bloodstream-stage cells was performed using a static–cidal (SC) assay as previously reported.[26] Briefly, bloodstream-form trypanosomes were seeded into 384-well plates at 4×10^5 mL^−1 (50 μL per well), followed by immediate addition of resazurin (50 μM final) to one of the plates, and all plates were incubated at 37 °C, 5 % CO2. After 4 h the t0 plate was read using a PerkinElmer Victor 3 plate reader (λex=528 nm, λem=590 nm). The second plate was processed in the same manner 20 h later, and at 44 h the last plate was processed. The minimum cidal concentration (MCC) is defined as the lowest concentration of drug that results in a decrease of resorufin signal over time. For dose–response curves from this assay either a monophasic or a biphasic equation was used, depending on which one provided the best fit. For monophasic fits, the following four-parametric equation [Eq. (1)] was used:
in which A=percent inhibition at bottom, B=percent inhibition at top, C=EC50, D=slope, x=inhibitor concentration, and y=percent inhibition. Equation (2) was used for biphasic fits:
for which A=percent inhibition at mid-plateau, B=slope, C=log[SC EC50(1)], D=log[SC EC50(2)]. Thus SC EC50(1) is the EC50 for the first phase of the curve, and SC EC50(2) is that for the second phase. Inhibition at the bottom of the curve is fixed at 0 % and at the top, 100 %.

T. b. brucei = experiment: Trypanosome proliferation assay; type: cell-based, Trypanosoma brucei brucei; conditions: for EC50: geometric mean of two or more determinations, standard cell viability (resazurin) assay, read-out: EC50 T. b. brucei
Description: as §1

[3] = Plasma protein binding (equilibrium dialysis); type: in vitro ADME; conditions: mouse plasma; for fraction unbound at 5 h, 10 μg g^−1: female, CD1, read-out: PPB; for fraction unbound at 5 h, 10 μg g^−1 / PPB: equilibrium dialysis
Description: Plasma protein binding experiments: In brief, a 96-well equilibrium dialysis apparatus was used to determine the free fraction in plasma for each compound (HT Dialysis LLC, Gales Ferry, CT, USA). Membranes (12-14 kDa cutoff) were conditioned in deionised H2O for 60 min, followed by conditioning in 80:20 deionised H2O/EtOH for 20 min, and then rinsed in isotonic buffer before use. Female CD1 mouse plasma was removed from the freezer and allowed to thaw on the day of experiment. Thawed plasma was then centrifuged (Allegra […], Beckman Coulter, USA), spiked with test compound (10 μg g^-1), and 150 μL aliquots (n=6 replicate determinations) loaded into the 96-well equilibrium dialysis plate. Dialysis against isotonic buffer (150 μL) was carried out for 5 h in a temperature-controlled incubator at ∼37 °C (Barworld Scientific Ltd., UK) using an orbital microplate shaker at 125 rpm (Barworld Scientific). At the end of the incubation period, aliquots of plasma or buffer were transferred to micronic tubes (Micronic B.V., the Netherlands), and the composition in each tube was balanced with control fluid such that the volume of buffer to plasma is the same. Sample extraction was performed by the addition of 400 μL MeCN containing an appropriate internal standard. Samples were allowed to mix for 1 min and then centrifuged at 3000 rpm in 96-well blocks for 15 min (Allegra […], Beckman Coulter, USA). All samples were analysed by UPLC-MS/MS on a Quattro Premier XE Mass Spectrometer (Waters Corp.). The unbound fraction was determined as the ratio of the peak area in buffer to that in plasma.

[4] = Kinetic aqueous solubility (laser nephelometry); type: physicochemical; conditions: Milli-Q water with 2.5% DMSO, kinetic from dmso stock, range 250–12 μM, read-out: Aq. Sol. (aqueous kinetic solubility)
Description: Solubility experiments: The kinetic aqueous solubility of the test compounds was measured using laser nephelometry. Compounds were subject to serial dilution from 10 mM to 0.5 mM in DMSO. An aliquot was then mixed with Milli-Q H2O to obtain an aqueous dilution plate with a final concentration range of 250–12 μM, with a final DMSO concentration of 2.5 %. Triplicate aliquots were transferred to a flat-bottomed polystyrene plate which was immediately read on the NEPHELOstar (BMG Lab Technologies). The amount of laser scatter caused by insoluble particulates (relative nephelometry units, RNU) was plotted against compound concentration using a segmental regression fit, with the point of inflection being quoted as the compounds′ aqueous solubility (in μM).

[5] = Intrinsic clearance in mouse liver microsomes; type: in vitro ADME; conditions: mouse hepatic microsomes, 0.5 μM compound
Description: Intrinsic clearance experiments: Test compound (0.5 μM) was incubated with female CD1 mouse liver microsomes (Xenotech LLC; 0.5 mg mL^−1 50 mM potassium phosphate buffer, pH 7.4), and the reaction started with the addition of excess NADPH (8 mg mL^−1 50 mM potassium phosphate buffer, pH 7.4). Immediately, at t0, then at 3, 6, 9, 15, and 30 min an aliquot (50 μL) of the incubation mixture was removed and mixed with MeCN (100 μL) to stop the reaction. Internal standard was added to all samples, the samples were centrifuged to sediment precipitated protein, and the plates were then sealed prior to UPLC–MS/MS analysis using a Quattro Premier XE instrument (Waters Corp., USA). XLfit (IDBS, UK) was used to calculate the exponential decay and consequently the rate constant (k) from the ratio of peak area of test compound to internal standard at each time point. The rate of intrinsic clearance [CLint, mL min^−1 (g liver)^−1] of each test compound was then calculated with Equation (3): […]
in which V [mL (mg protein)^−1] is the incubation volume per mg protein added, and microsomal protein yield is taken as 52.5 mg protein per gram of liver. Verapamil (0.5 μM) was used as a positive control to confirm acceptable assay performance.

[6] = In vivo pharmacokinetics in mice; set-up: species or system female NMRI mice; conditions: mouse, whole blood, ip, blood; for Tmax: female, NMRI; for AUC(0-t): read-out: AUC(0–8) (converted)
Description: In vivo pharmacokinetics in mice: Compounds 1 and 28 were dosed orally by gavage as a solution at 5 mg free base per kg or 20 mg free base per kg, respectively (dose volume: 5 or 10 mL kg^−1, dose vehicle: 5 % DMSO, 40 % PEG400, 55 % distilled H2O) to female NMRI mice (n=3). Compounds 28, 38, and 56 were dosed as a bolus solution intraperitoneally at 10 (56) or 20 (28 and 38) mg free base per kg (dose volume: 10 mL kg^−1, dose vehicle: 5 % DMSO, 40 % PEG400, 55 % sterile H2O) to female NMRI mice (n=3). Female NMRI mice were chosen, as these represent the sex and strain used for the stage-1 and stage-2 HAT efficacy models. Blood samples were taken from each mouse at 5 (i.p. only), 15 and 30 min, 1, 2, 4, 6 and 8 h post-dose and mixed with two volumes of distilled H2O. After suitable sample preparation, the concentration of each compound in blood was determined by UPLC–MS/MS using a Quattro Premier XE (Waters, USA). Pharmacokinetic parameters were derived from the mean blood concentration time curve using PKsolutions software ver. 2.0 (Summit Research Services, USA).

[7] = static cidal EC50, first site/phase, read-out: SC EC50(1)
[8] = static cidal EC50, second site/phase, read-out: SC EC50(2)

| Structure (SMILES) | EC50 [1] | EC50 [2, 7] | EC50 [2, 8] | MCC [2] | mode of antiparasitic effect (in words) [2] | EC50 (T. b. brucei; Trypanosoma brucei) | EC50 (T. b. brucei) | fraction unbound at 5 h, 10 μg g^−1 [3] | solubility kinetic [4] | CLint [5] | also measured |
| --- | --- | --- | --- | --- | --- | --- | --- | --- | --- | --- | --- |
| c1ccc(-c2cnc3[nH]nc(C4CCCCC4)c3c2)cc1 [Compound 60] | > 50000 nM | 80 nM | 7900 nM | 17 µM | cidal behaviour | 59 nM | 60 nM | 0.014 | 20 µM (≈ 5.55 µg/mL) | 15 mL/min/g | plateau of dose–response curve (inhibition) [2]: 100 % inhibition |
| O=c1[nH]c2ncc(-c3cccnc3)nc2n1C1CCCCC1 [Compound 30] | > 50000 nM | 230 nM | – | > 50 µM | growth-slowing or static behaviour | 100 nM | 120 nM | 0.023 | – | 2.8 mL/min/g | – |
| O=c1[nH]c2ncc(N3CCCCC3)cc2n1C1CCCCC1 [Compound 56] | > 50000 nM | 70 nM | > 50000 nM | > 50 µM | growth-slowing or static behaviour | 93 nM | 90 nM | 0.11 | > 250 µM | 3.6 mL/min/g | Tmax ([6]; 10 mg/kg, 10 mg kg^−1, female NMRI mice): 0.25 h; Cmax ([6]; 10 mg kg^−1, female NMRI mice): 580 ng/mL; half-life ([6]; 10 mg kg^−1, female NMRI mice): 0.7 h; AUC(0-t) ([6]; 10 mg kg^−1, female NMRI mice): 883 ng·h/mL |
| c1cncc(-c2cnc3[nH]nc(C4CCCCC4)c3c2)c1 [Compound 63] | > 50000 nM | 280 nM | 6100 nM | 17 µM | cidal behaviour | 260 nM | – | 0.052 | 250 µM (≈ 69.6 µg/mL) | 6.6 mL/min/g | plateau of dose–response curve (inhibition) [2]: 100 % inhibition |
| O=c1[nH]c2ncc(-c3ccccc3)nc2n1C1CCOCC1 [Compound 38] | > 50000 nM | – | – | – | – | 100 nM | – | – | 55 µM (≈ 16.3 µg/mL) | 1.6 mL/min/g | protein binding (unbound) [3]: 15 % unbound; Tmax ([6]; 20 mg/kg, 20 mg kg^−1, female NMRI mice): 2 h; Cmax ([6]; 20 mg kg^−1, female NMRI mice): 83 ng/mL; half-life ([6]; 20 mg kg^−1, female NMRI mice): 2.2 h; AUC(0-t) ([6]; 20 mg kg^−1, female NMRI mice): 367 ng·h/mL |
| O=c1[nH]c2ncc(N3CCCCC3)nc2n1C1CCCCC1 [Compound 31, 1-Cyclohexyl-6-(piperidin-1-yl)-1H-imidazo[4,5-b]pyrazin-2(3H)-one] | > 50000 nM | – | – | – | – | 80 nM | 77 nM | – | – | 15 mL/min/g | PPB [3]: 0 % free |
| O=c1[nH]c2ncc(-c3cccnc3)cc2n1C1CCCCC1 [Compound 55] | > 50000 nM | 330 nM | – | > 50 µM | growth-slowing or static behaviour | 230 nM | – | 0.11 | 180 µM (≈ 53 µg/mL) | 2.7 mL/min/g | fold loss of activity (T. b. brucei EC50) (T. b. brucei; relative to the comparator compound): approximately 2 fold |
| O=c1[nH]c2ncc(-c3ccccc3)nc2n1C1CCCCC1 [Compound 19] | > 50000 nM | – | – | – | – | 40 nM | 44 nM | 0.008 | 110 µM (≈ 32.4 µg/mL) | 3.6 mL/min/g | PPB [3]: 0.8 % free |
| O=c1[nH]c2ncc(-c3ccccc3)cc2n1C1CCCCC1 [Compound 51] | > 50000 nM | 20 nM | 41000 nM | > 50 µM | growth-slowing or static behaviour | 54 nM | 50 nM | 0.029 | 36 µM (≈ 10.6 µg/mL) | 5.8 mL/min/g | Mode ([2]; static/cidal classification from growth curves): S^[d] |
